PubChem BioAssay (NCI)
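Assay format: 96-well plates, 48-hour exposure. TGI: concentration producing complete growth inhibition.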

Experiments:
Assay in all cases: DTP human tumour cell line panel, 48 h
[1] = system: EKVX NSCLC
[2] = system: COLO 205 colon
[3] = system: HL-60(TB) leukemia
[4] = system: HT29 colon
[5] = system: NCI-H23 lung
[6] = system: BT-549 breast
[7] = system: NCI-H522 lung
[8] = system: SNB-75 CNS
[9] = system: HCT-15 colon
[10] = system: MOLT-4 leukemia
[11] = system: PC-3 prostate

Measured: TGI

O=C1CSC2=NCC3(NN12)c1ccccc1-c1ccccc13
> 10 µM: all assays above
